Among the data in patent US11945782B2, “Composition and methods of use of tetrahydroisoquinoline small molecules to bind and modulate PCSK9 protein activity” (SRX CARDIO, LLC, priority 2015, dated 2024) are inhibition values, retold here.

The target in assay [1] is T1, recombinant PCSK9 (Homo sapiens, UniProt Q8NBP7). Nature of the assay: DiI-LDL Uptake Assay in HepG2 cells with recombinant PCSK9. Particulars: 2.5 ug/mL PCSK9, read-out: Uptake Assay: % Inhibition of 2.5 ug/mL recombinant PCSK9 @ X compound dose; for inhibition at 1.25 µM: 1.25 uM compound; for inhibition at 10 µM: 10 uM compound; for inhibition at 0.313 µM: 0.313 uM compound. The assay is classed as cell-based. As to the method:
(§1) The cells were incubated in a 96-well plate for a total of 16 h in the absence or presence of recombinant PCSK9 (final concentration 2.5 ug/ml) protein alone or recombinant PCSK9 protein pre-mixed with indicated concentration of experimental compounds (Cmpd #). After 16 h, DiI-LDL (final concentration 5 ug/ml) was added to the incubation mixtures. After 4 h, cells are stained with Hoechst 33342 for 30 minutes, then rinsed with phosphate buffered saline, and then a final volume of 100 ul phosphate buffered saline was added to each well. The fluorescence was measured (DiI: excitation at 550 nm and emission at 590 nm; Hoechst: excitation at 355 nm, emission at 460 nm). […] The cells were incubated in 24-well plates for a total of 6 h in the absence or presence of recombinant PCSK9 protein (final concentration of 5.0 ug/ml), or in the presence of PCSK9 protein mixed with indicated concentration of experimental compound (Cmpd #). After 6 hours, the cells were released from the plate, stained with anti-LDLR antibody, then rinsed, counterstained with DAN, and then measured by fluorescence activated cell sorting (FACS). The percent recombinant PCSK9 inhibition was calculated as [‘Compound Dose LDLR Fluorescence’-‘5.0 ug/ml PCSK9-treated LDLR Fluorescence’]/[‘PCSK9 Basal LDLR Fluorescence’-‘5.0 ug/ml PCSK9-treated LDLR Fluorescence’]×100%.
Cellular DiI-LDL uptake can be measured using protocols adapted from Benjannet et al., “Effects of the prosegment and pH on the activity of PCSK9: evidence for additional processing events” J Biol Chem. 285(52): 40965-40978 (2010) and “Composition and Methods of Use of Small Molecules as Binding Ligands for the Modulation of Proprotein Convertase Subtilisin/Kexin Type 9 (PCSK9) Protein Activity” (WO2016029037), which are incorporated by reference in their entirety.
Cells, such as HepG2, HuH7, FL83B, or a cell line transfected with a short-hairpin PCSK9 knockdown sequence such as HepG2/shPCSK9, HuH7/shPCSK9, or FL83B/shPCSK9 are plated and cultured at 37° C. for 12-24 h. Culture media is removed and replaced with fresh lipoprotein-depleted culture media supplemented with 5 ug/mL of DiI-LDL (Kalen Biomedical) or lipoprotein-depleted culture media supplemented with 5 ug/mL of Dil-LDL plus a predetermined concentration of recombinant PCSK9, for example a 10 nM final concentration of PCSK9. Lipoprotein-depleted culture media can be composed of DMEM (Invitrogen) with 10% lipoprotein-depleted fetal bovine serum (Kalen Biomedical) and supplemented with penicillin-streptomycin (Life Technologies). Cells are dosed with small molecule test compounds at doses ranging from 0 nM to 100 uM.
Following an incubation period of specified length, such as 6 hours, Hoechst 33342 (AnaSpec) stain is added to the cell media per manufacturer's instructions and incubated for a specified length (e.g., 30 minutes). The lipoprotein-depleted media is removed and cells rinsed three times with phosphate buffered saline. A final volume of phosphate buffered saline is added back to the wells. The DiI fluorescence is measured with a plate reader using an exciting wavelength of 550 nm and the resulting emission at 590 nm is measured. The Hoechst stain fluorescence is measured with a plate reader using an exciting wavelength of 355 nm and the resulting emission at 460 nm is measured.
Cells are analyzed by for both Hoechst stain (DNA content) and DiI-LDL fluorescence. Cells incubated with small molecule compounds that are inhibitors of PCSK9 will be expected to show increased amounts of DiI-LDL fluorescence, relative to control (no compound) specimens, and cells incubated with small molecule compounds that are activators of PCSK9 will be expected to show decreased amounts of DiI-LDL fluorescence relative to control (no compound) specimens.

Assay [2] deals with T1, recombinant PCSK9. Put plainly: LDLR FACS (flow) Assay in HuH7 cells with recombinant PCSK9. The assay is classed as cell-based. The conditions noted are these: 5.0 ug/mL PCSK9, read-out: LDLR Flow Assay: % Inhibition of 5.0 ug/mL recombinant PCSK9 @ X compound dose; for inhibition at 5 µM: Huh-7, 5 uM compound. As to the method: as §1
LDLR levels can be measured using flow cytometry or fluorescence activated cell sorting (FACS) using protocols adapted from Benjannet et al., “Effects of the prosegment and pH on the activity of PCSK9: evidence for additional processing events” J Biol Chem. 285(52): 40965-40978 (2010) and “Composition and Methods of Use of Small Molecules as Binding Ligands for the Modulation of Proprotein Convertase Subtilisin/Kexin Type 9 (PCSK9) Protein Activity” (WO2016029037), which are incorporated by reference in their entirety.
Cells, such as HepG2, HuH7, FL83B, or a cell line transfected with a short-hairpin PCSK9 knockdown sequence such as HepG2/shPCSK9, HuH7/shPCSK9, or FL,83B/shPCSK9 are plated and cultured at 37° C. for 12-24 h. Culture media is removed and replaced with fresh culture media or culture media plus a predetermined amount of recombinant PCSK9, for example a 10 nM final concentration of PCSK9. Cell culture media can be composed of DMEM (Invitrogen) with 10% fetal bovine serum (Life Technologies) supplemented with penicillin-streptomycin (Life Technologies). Cells are dosed with small molecule test compounds at doses ranging from 0 nM to 100 uM
Following an incubation period of specified length, such as 6 hours, the media is removed and the cells are rinsed three times with a rinse solution (i.e., Dulbecco's phosphate buffered saline (D-PBS, Life Technologies) supplemented with 0.5% bovine serum albumin (BSA, Sigma) and 1 g/L glucose (Sigma)). The fluid is then removed, and cells are released from the plate using TrypLE Express (Life Technologies) per manufacturer's recommend procedures, such as incubation for 5-10 minutes at 37° C. The TyrpLE-Cell suspension is then transferred to 15 mL conical tubes, volume is increased to 2 mL with D-PBS supplemented with 0.5% BSA and […] glucose, and the tubes are centrifuged at 250× gravity for 10 minutes. Following centrifugation, the supernatant is aspirated and the cell pellet is resuspended in 100 uL D-PBS containing 0.5% BSA and […] glucose, and cells are labeled with anti-LDLR antibody per the manufacturer's recommended procedure. The cells are then pelleted by centrifugation, resuspended in 300 uL PBS and counterstained with 4′,6-Diamidino-2-phenylindole (DAPI, Cayman Chemical) as a cell viability marker, other cell viability markers such as 7-aminoactinomycin D (7AAD, Life Technologies) have also been described in the art.
Cells are analyzed for both cell viability marker (dead cells) and LDLR in live cells using a flow cytometer per the manufacturer's operating manual. […]

A value given as a limit tells only on which side of the number the result lay.

T1 sequence (Q8NBP7 153-692): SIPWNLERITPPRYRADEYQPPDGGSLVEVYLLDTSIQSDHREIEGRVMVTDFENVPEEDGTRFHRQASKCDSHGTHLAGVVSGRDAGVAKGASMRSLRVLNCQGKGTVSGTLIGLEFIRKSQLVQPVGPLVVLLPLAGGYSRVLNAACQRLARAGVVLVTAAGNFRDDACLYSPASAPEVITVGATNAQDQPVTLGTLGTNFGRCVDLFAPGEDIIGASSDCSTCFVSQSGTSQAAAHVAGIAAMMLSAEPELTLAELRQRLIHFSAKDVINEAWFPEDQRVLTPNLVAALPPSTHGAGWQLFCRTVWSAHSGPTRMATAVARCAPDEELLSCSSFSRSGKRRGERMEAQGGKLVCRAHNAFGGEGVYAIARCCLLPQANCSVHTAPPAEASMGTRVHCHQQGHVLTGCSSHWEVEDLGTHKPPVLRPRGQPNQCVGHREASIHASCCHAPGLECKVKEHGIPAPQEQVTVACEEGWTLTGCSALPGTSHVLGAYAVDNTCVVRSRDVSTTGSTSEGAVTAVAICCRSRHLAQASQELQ

`Cc1cc(-c2ccccc2F)cc2c1CCNC2` [Compound 3, 7-(2-fluorophenyl)-5-methyl-1,2,3,4-tetrahydroisoquinoline]: at recombinant PCSK9 [1], the inhibition at 1.25 µM was about 42% and the inhibition at 10 µM was over 100%.
For `c1ccc(-c2ccc3c(c2)CNCC3)cc1` [Compound 1, 7-phenyl-1,2,3,4-tetrahydroisoquinoline], at recombinant PCSK9 [1], the inhibition at 0.313 µM was about 45% and the inhibition at 10 µM was over 100%. The inhibition at 0.625 µM at recombinant PCSK9 [2] (Huh-7, 0.625 uM compound) is about 10%. Also, on recombinant PCSK9 [2] (Huh-7, 1.25 uM compound), the inhibition at 1.25 µM was about 15%. The inhibition at 20 µM at recombinant PCSK9 [2] (Huh-7, 20 uM compound) was about 20%.
Regarding `Cc1cc2c(cc1-c1ccccc1F)CNCC2` [Compound 2, 7-(2-fluorophenyl)-6-methyl-1,2,3,4-tetrahydroisoquinoline], on recombinant PCSK9 [1], the inhibition at 0.313 µM was about 50% and the inhibition at 10 µM was over 100%. Also, on recombinant PCSK9 [2], the inhibition at 5 µM is about 19%.
As for `Cc1cc2c(cc1-c1ccccc1F)C(=O)NCC2` [Compound 5, 7-(2-fluorophenyl)-6-methyl-3,4-dihydroisoquinolin-1(2H)-one], the inhibition at 1.25 µM at recombinant PCSK9 [1] is about 33%. Further, the inhibition at 10 µM at recombinant PCSK9 [2] (Huh-7, 10 uM compound) is about 10%.
As to `Cc1cc(-c2ccccc2F)cc2c1CCNC2=O` [Compound 4, 7-(2-fluorophenyl)-5-methyl-3,4-dihydroisoquinolin-1(2H)-one], the inhibition at 20 µM on recombinant PCSK9 [1] (20 µM compound) is about 18%. Also, at recombinant PCSK9 [2], the inhibition at 5 µM was about 10%.
